In brackets after ≈: the same amount, converted by molar mass. Read-outs that look alike come from different tables or passages of the source.
Assays:
HT-29 = assay: Antiproliferative activity, SRB assay; format: cell-based, human; conditions: mean ± SEM
HT-1080 = assay: Antiproliferative activity, SRB assay; format: cell-based, human; conditions: read-out: IC50 HT-1080; 48 h of treatment; mean ± SEM
HL-60 = assay: Antiproliferative activity, MTT assay; format: cell-based, human; conditions: mean ± SEM
MOLM-13 = assay: Antiproliferative activity, MTT assay; format: cell-based, human; conditions: read-out: IC50 MOLM-13; 48 h of treatment; mean ± SEM
MCF7 = assay: Antiproliferative activity, SRB assay; format: cell-based, human; conditions: mean ± SEM
M21 = assay: Antiproliferative activity, SRB assay; format: cell-based, human; conditions: mean ± SEM
THP-1 = assay: Antiproliferative activity, MTT assay; format: cell-based, human; conditions: mean ± SEM
physchem = conditions: ultrapure water, 37 °C, kinetic from dmso stock
[1] = read-out: IC50 HT-29, 48 h of treatment
[2] = read-out: IC50 HL-60, 48 h of treatment
[3] = read-out: IC50 MCF7, 48 h of treatment
[4] = read-out: IC50 M21, 48 h of treatment
[5] = read-out: IC50 THP-1, 48 h of treatment
[6] = Homo sapiens, HT-29, 48 h, read-out: IC50 HT-29, 48 h of treatment
[7] = Homo sapiens, MCF7, 48 h, read-out: IC50 MCF7, 48 h of treatment
[8] = Homo sapiens, M21, 48 h, read-out: IC50 M21, 48 h of treatment
[9] = Homo sapiens, THP-1, 48 h, read-out: IC50 THP-1, 48 h of treatment
[10] = Homo sapiens, HL-60, 48 h, read-out: IC50 HL-60, 48 h of treatment

Row | IC50 (HT-29; [1]) | IC50 (HT-1080) | IC50 (HL-60; [2]) | IC50 (MOLM-13) | IC50 (MCF7; [3]) | IC50 (THP-1; [5]) | solubility at 24 h (physchem) | IC50 (HT-29; [6]) | IC50 (MCF7; [7]) | IC50 (THP-1; [9]) | IC50 (HL-60; [10]) | Compound | IC50 (M21; [4]) | IC50 (M21; [8])
1 | 9.7 ± 0.7 µM | 2.1 ± 0.3 µM | 40 ± 10 µM | 1.1 ± 0.2 µM | 31 ± 3 µM | 7 ± 1 µM | 64 ± 1 µg/mL (≈ 160 µM) |  |  |  |  | CCNC(=O)Nc1ccc(S(=O)(=O)Oc2cccnc2Br)cc1 [Compound 1, 2-Bromopyridin-3-yl 4-(3-ethylureido)benzenesulfonate] | 12 ± 1 µM | 
2 | 56 ± 3 µM | 10.2 ± 0.8 µM | 50 ± 10 µM | 6 ± 2 µM | 20 ± 3 µM | 4.4 ± 0.2 µM | 55 ± 1 µg/mL (≈ 164 µM) |  |  |  |  | CCNC(=O)Nc1ccc(S(=O)(=O)Oc2cccnc2C)cc1 [Compound 4, 2-Methylpyridin-3-yl 4-(3-ethylureido)benzenesulfonate] | 79 ± 4 µM | 
3 | 17 ± 1 µM | 3.3 ± 0.2 µM | 19 ± 2 µM | 2.6 ± 0.1 µM | 13 ± 1 µM | 5.9 ± 0.5 µM | 8 ± 1 µg/mL (≈ 19.3 µM) |  |  |  |  | CCCNC(=O)Nc1ccc(S(=O)(=O)Oc2cccnc2Br)cc1 [Compound 5, 2-Bromopyridin-3-yl 4-(3-propylureido)benzenesulfonate] | 24 ± 2 µM | 
4 | 16 ± 1 µM | 2 ± 0.2 µM | 24 ± 5 µM | 2.2 ± 0.3 µM | 13 ± 1 µM | 2.4 ± 0.1 µM | 23 ± 2 µg/mL (≈ 49.9 µM) |  |  |  |  | CCCNC(=O)Nc1ccc(S(=O)(=O)Oc2cccnc2I)cc1 [Compound 6, 2-Iodopyridin-3-yl 4-(3-propylureido)benzenesulfonate] | 17 ± 1 µM | 
5 |  |  | 12 ± 1 µM |  |  | 1.2 ± 0.5 µM | 56 ± 2 µg/mL (≈ 129 µM) | 17 ± 1 µM | 16 ± 1 µM |  |  | O=C(NCCCl)Nc1ccc(S(=O)(=O)Oc2cccnc2Br)cc1 [Compound 9, 2-Bromopyridin-3-yl 4-(3-(2-chloroethyl)ureido)benzenesulfonate] |  | 23 ± 1 µM
6 | 9 ± 1 µM |  | 6.9 ± 0.3 µM |  | 5 ± 1 µM |  | 4.4 ± 0.1 µg/mL (≈ 9.13 µM) |  |  | 1 ± 0.1 µM |  | O=C(NCCCl)Nc1ccc(S(=O)(=O)Oc2cccnc2I)cc1 [Compound 10, 2-Iodopyridin-3-yl 4-(3-(2-chloroethyl)ureido)benzenesulfonate] |  | 9 ± 1 µM
7 |  |  |  |  |  |  | 64 ± 1 µg/mL (≈ 160 µM) | 25 ± 1 µM | 32 ± 4 µM | 4 ± 0.6 µM | > 50 µM | CCNC(=O)Nc1ccc(S(=O)(=O)Oc2cnccc2Br)cc1 [Compound 12, 4-Bromopyridin-3-yl 4-(3-ethylureido)benzenesulfonate] | 21 ± 1 µM | 
8 |  |  |  |  |  | 6 ± 2 µM | 49 ± 4 µg/mL (≈ 146 µM) | 16 ± 1 µM | 31 ± 3 µM |  | > 100 µM | CCNC(=O)Nc1ccc(S(=O)(=O)Oc2cnccc2C)cc1 [Compound 14, 4-Methylpyridin-3-yl 4-(3-ethylureido)benzenesulfonate] |  | 31 ± 3 µM
9 |  | 4.1 ± 0.3 µM |  |  |  |  | 35 ± 3 µg/mL (≈ 84.5 µM) | 19 ± 1 µM | 12 ± 1 µM | 6 ± 1 µM | 21 ± 5 µM | CCCNC(=O)Nc1ccc(S(=O)(=O)Oc2cnccc2Br)cc1 [Compound 15, 4-Bromopyridin-3-yl 4-(3-propylureido)benzenesulfonate] |  | 28 ± 2 µM
10 | 6.9 ± 0.5 µM |  | 18 ± 4 µM | 1.3 ± 0.3 µM | 5 ± 1 µM |  | 53 ± 6 µg/mL (≈ 115 µM) |  |  | 1.5 ± 0.4 µM |  | CCCNC(=O)Nc1ccc(S(=O)(=O)Oc2cnccc2I)cc1 [Compound 16, 4-Iodopyridin-3-yl 4-(3-propylureido)benzenesulfonate] | 9.7 ± 0.9 µM | 
11 |  |  |  |  |  |  | 24 ± 2 µg/mL (≈ 49.8 µM) | 2.7 ± 0.2 µM | 2.8 ± 0.4 µM | 1.2 ± 0.3 µM | 3 ± 1 µM | O=C(NCCCl)Nc1ccc(S(=O)(=O)Oc2cnccc2I)cc1 [Compound 18, 4-Iodopyridin-3-yl 4-(3-(2-chloroethyl)ureido)benzenesulfonate] |  | 2.8 ± 0.3 µM
12 | > 100 µM | 15 ± 2 µM | 15 ± 3 µM | 14 ± 2 µM | 33 ± 4 µM | 6 ± 2 µM | 151 ± 1 µg/mL |  |  |  |  | CCCNC(=O)Nc1ccc(S(=O)(=O)Oc2cccnc2C)cc1.Cl [Compound 26, 2-Methylpyridin-3-yl 4-(3-propylureido)benzenesulfonate hydrochloride] | > 100 µM | 
13 | 33 ± 1 µM | 5.5 ± 0.4 µM | > 50 µM | 4.8 ± 0.7 µM | 16 ± 1 µM | 4.9 ± 0.3 µM | 189 ± 5 µg/mL |  |  |  |  | Cl.O=C(NCCCl)Nc1ccc(S(=O)(=O)Oc2cccnc2Br)cc1 [Compound 27, 2-Bromopyridin-3-yl 4-(3-(2-chloroethyl)ureido)benzenesulfonate hydrochloride] | 30 ± 2 µM | 

Second part, the compound before the results:

Row | Compound | IC50 (HT-29; [1]) | IC50 (HT-1080) | IC50 (HL-60; [2]) | IC50 (MOLM-13) | IC50 (MCF7; [3]) | IC50 (THP-1; [5]) | solubility at 24 h (physchem) | IC50 (HT-29; [6]) | IC50 (MCF7; [7]) | IC50 (THP-1; [9]) | IC50 (HL-60; [10]) | IC50 (M21; [4]) | IC50 (M21; [8])
14 | CCCNC(=O)Nc1ccc(S(=O)(=O)Oc2cccnc2C(C)C)cc1 [Compound 7, 2-Isopropylpyridin-3-yl 4-(3-propylureido)benzenesulfonate] |  |  | 24 ± 4 µM |  |  |  | 7 ± 1 µg/mL (≈ 18.5 µM) | 14 ± 1 µM | 17 ± 1 µM | 2.6 ± 0.6 µM |  |  | 22 ± 2 µM
15 | CCCNC(=O)Nc1ccc(S(=O)(=O)Oc2cccnc2C)cc1 [Compound 8, 2-Methylpyridin-3-yl 4-(3-propylureido)benzenesulfonate] |  | 5.1 ± 0.5 µM | 35 ± 7 µM |  |  |  | 44 ± 1 µg/mL (≈ 126 µM) | 70 ± 8 µM | 19 ± 2 µM | 3.5 ± 0.9 µM |  |  | 69 ± 3 µM
16 | CC(C)c1ncccc1OS(=O)(=O)c1ccc(NC(=O)NCCCl)cc1 [Compound 11, 2-Isopropylpyridin-3-yl 4-(3-(2-chloroethyl)ureido)benzenesulfonate] |  |  | 27 ± 6 µM |  |  |  | 41 ± 3 µg/mL (≈ 103 µM) | 14 ± 1 µM | 17 ± 1 µM | 2.3 ± 0.9 µM |  | 20 ± 1 µM | 
17 | CCNC(=O)Nc1ccc(S(=O)(=O)Oc2cnccc2I)cc1 [Compound 13, 4-Iodopyridin-3-yl 4-(3-ethylureido)benzenesulfonate] |  |  |  |  |  |  | 63 ± 1 µg/mL (≈ 141 µM) | 12 ± 1 µM | 15 ± 2 µM | 1.8 ± 0.5 µM | 25 ± 7 µM |  | 9 ± 1 µM
18 | CCCNC(=O)Nc1ccc(S(=O)(=O)Oc2cnccc2C)cc1 [Compound 17, 4-Methylpyridin-3-yl 4-(3-propylureido)benzenesulfonate] | 12 ± 1 µM | 7.5 ± 0.5 µM | 43 ± 7 µM | 4 ± 0.6 µM | 12 ± 1 µM |  | 52 ± 2 µg/mL (≈ 149 µM) |  |  | 7.3 ± 0.8 µM |  | 24 ± 1 µM | 
19 | CCNC(=O)Nc1ccc(S(=O)(=O)Oc2cccnc2Br)cc1.Cl [Compound 19, 2-Bromopyridin-3-yl 4-(3-ethylureido)benzenesulfonate hydrochloride] | 26 ± 2 µM |  | > 100 µM |  |  |  | 173 ± 2 µg/mL |  | 28 ± 2 µM | 7 ± 3 µM |  | 27 ± 2 µM | 
20 | CCNC(=O)Nc1ccc(S(=O)(=O)Oc2cccnc2C)cc1.Cl [Compound 22, 2-Methylpyridin-3-yl 4-(3-ethylureido)benzenesulfonate hydrochloride] |  | 26 ± 2 µM |  |  | 51 ± 5 µM |  | 152 ± 4 µg/mL | > 100 µM |  | 5 ± 2 µM | 60 ± 20 µM |  | > 100 µM
21 | CCCNC(=O)Nc1ccc(S(=O)(=O)Oc2cccnc2Br)cc1.Cl [Compound 23, 2-Bromopyridin-3-yl 4-(3-propylureido)benzenesulfonate hydrochloride] | 42 ± 2 µM |  |  |  |  |  | 79 ± 9 µg/mL |  | 22 ± 2 µM | 10 ± 0.3 µM | 37 ± 7 µM |  | 45 ± 2 µM
22 | CCCNC(=O)Nc1ccc(S(=O)(=O)Oc2cccnc2I)cc1.Cl [Compound 24, 2-Iodopyridin-3-yl 4-(3-propylureido)benzenesulfonate hydrochloride] |  |  |  |  |  |  | 120 ± 10 µg/mL | 28 ± 2 µM | 22 ± 2 µM | 3.9 ± 0.7 µM | 30 ± 10 µM |  | 29 ± 2 µM
23 | CCCNC(=O)Nc1ccc(S(=O)(=O)Oc2cccnc2C(C)C)cc1.Cl [Compound 25, 2-Isopropylpyridin-3-yl 4-(3-propylureido)benzenesulfonate hydrochloride] | 15 ± 0.8 µM | 2.4 ± 0.2 µM | 8 ± 3 µM | 1.9 ± 0.5 µM | 16 ± 1 µM | 2.4 ± 0.9 µM | 26 ± 3 µg/mL |  |  |  |  | 20 ± 1 µM | 
24 | Cl.O=C(NCCCl)Nc1ccc(S(=O)(=O)Oc2cccnc2I)cc1 [Compound 28, 2-Iodopyridin-3-yl 4-(3-(2-chloroethyl)ureido)benzenesulfonate hydrochloride] | 21 ± 1 µM | 3.1 ± 0.2 µM | 19 ± 4 µM | 2.4 ± 0.4 µM | 13 ± 1 µM | 1.8 ± 0.7 µM | 37 ± 2 µg/mL |  |  |  |  | 15 ± 1 µM | 
25 | CC(C)c1ncccc1OS(=O)(=O)c1ccc(NC(=O)NCCCl)cc1.Cl [Compound 29, 2-Isopropylpyridin-3-yl 4-(3-(2-chloroethyl)ureido)benzenesulfonate hydrochloride] | 10.5 ± 0.5 µM | 3.3 ± 0.2 µM | 13 ± 4 µM | 2.5 ± 0.9 µM | 14 ± 1 µM | 2.6 ± 0.9 µM | 126 ± 5 µg/mL |  |  |  |  | 9.7 ± 0.5 µM | 
